Drawing on patent US20060128723A1, “Sulptionamide compounds that modulate chemokine receptor activity (CCR4)” (priority 2003, published 2006), this text covers melting point for 8 compounds.

Structures are written as SMILES. Structures can show the parent of a compound that is named as a salt.

A word on the melting point: it is the temperature, or range, at which the solid turns liquid.

Regarding `COc1nc(Br)cnc1NS(=O)(=O)c1scc(Cl)c1Cl` (as salt: ammonium) [Example 5, N-(5-Bromo-3-methoxypyrazin-2-yl)-3,4-dichlorothiophene-2-sulphonamide, ammonium salt], the melting point is 204 °C (dec.).
On to `COc1nc(Br)cnc1NS(=O)(=O)c1sc(Cl)c(Cl)c1Cl` (as salt: ammonium) [Example 6, N-(5-Bromo-3-methoxypyrazin-2-yl)-3,4,5-trichlorothiophene-2-sulphonamide, ammonium salt], for which the melting point was 211 °C (dec.).
In the case of `COc1nccnc1NS(=O)(=O)c1sc(Cl)c(Cl)c1Cl` [Example 1, 3,4,5-Trichloro-N-(3-methoxypyrazin-2-yl)thiophene-2-sulphonamide] it was 212 to 214 °C.
On to `COc1nccnc1NS(=O)(=O)c1scc(Cl)c1Cl` [Example 2, 3,4-Dichloro-N-(3-methoxypyrazin-2-yl)thiophene-2-sulphonamide], for which the melting point is 151.5 to 152.5 °C.
In the case of `COc1nc(C)cnc1NS(=O)(=O)c1sc(Cl)c(Cl)c1Cl` [Example 3, 3,4,5-Trichloro-N-(3-methoxy-5-methylpyrazin-2-yl)thiophene-2-sulphonamide] it was 146 to 147 °C.
With `COc1nc(C)cnc1NS(=O)(=O)c1scc(Cl)c1Cl` [Example 4, 3,4-Dichloro-N-(3-methoxy-5-methylpyrazin-2-yl)thiophene-2-sulphonamide], the melting point lay within 117 to 118 °C.
In the case of `COc1nc(Cl)cnc1NS(=O)(=O)c1sc(Cl)c(Cl)c1Cl` [Example 7, 3,4,5-Trichloro-N-(5-chloro-3-methoxypyrazin-2-yl)thiophene-2-sulphonamide.] it was 178 to 179 °C.
`COc1nc(Cl)cnc1NS(=O)(=O)c1scc(Cl)c1Cl` [Example 8, 3,4-Dichloro-N-(5-chloro-3-methoxypyrazin-2-yl)thiophene-2-sulphonamide.] yielded a melting point of 116 to 117 °C.
